This note sets out measurements from ChEMBL document CHEMBL5370575, “Probing the Cytotoxic Signaling Induced by Eupenifeldin in Ovarian Cancer Models” (J Nat Prod, 2023).

The test system of the assay is OVCAR-3. Description: Induction of ferroptosis in human OVCAR-3 cells at 0.001 to 10 uM in presence of ferrostatin-1 by CellTiterGlo assay. The settings on record: dose 0.001-10 µM. It counts as functional, cell-based.

Calls of active or inactive are those of the source. No cut-off for these calls is given here.

`CC(C)Oc1ccc(C(=O)Cn2ccnc2)cc1-n1c(CN2CCN(C(=O)COc3ccc(Cl)cc3)CC2)nc2ccccc2c1=O`: the result was inactive.
`COC(=O)c1ccc([C@H]2c3[nH]c4ccccc4c3C[C@H](C(=O)OC)N2C(=O)CCl)cc1`: the result was inactive.
